# Assay results: patent US20230076415A1, “METHODS AND COMPOSITIONS FOR TREATING MELANOMA” (INSERM (INSTITUT NATIONAL DE LA SANTÉ ET DE LA RECHERCHE …, priority 2020, published 2023)
# Tests used:
# [1] = test system: human (M099, M029, Sbcl2, 501Mel, WM9 and MEWO) and murine (Yumm1.7 and MaNras) melanoma cell lines; assay: IC50 of 8TQ on a collection of melanoma cell lines and short-term cultures; assay type: cell-based
# Protocol: FIG. 3. Pharmacological inhibition of PSMD14 impairs melanoma cell survival. A) Survival analysis performed on A375 cells treated with vehicle or increasing doses of 8TQ (0.27, 0.9, 3 μM). After 72h, cells were stained with crystal violet. Right, cell viability was quantified on lysates by analyzing crystal violet staining at 595 nm. Histograms represent the mean±SD of three independent experiments in duplicate (***P<0.001; ns, non significant). B) Effect of PSMD14 inhibition on melanoma cell viability. A375 cells were treated with vehicle or increasing doses of 8TQ (0.27, 0.9, 3 μM). After 72h, cells were stained with Annexin V-FITC and DAPI and analysed by flow cytometry. Histograms show the percentage of cell death (Annexin V and DAPI positive cells) (mean±SEM, n=3). The calculated mean IC50±sem is shown. (** P<0.005, ***P<0.001). C) A subset of melanoma cells was treated with increasing doses of 8TQ. After 72h, cells were labeled and analyzed as in b). The corresponding IC50 of 8TQ was determined by measuring cell viability. […]
# (§1) After 24 to 48h of treatment, cell viability was evaluated by flow cytometry following staining with Annexin-V-FITC and propidium iodide (PI) (ThermoFisher Scientific) as previously described (27). The percentage of dead cells (Annexin-V-FITC+ and PI+ cells) was then determined. […]
# [2] = test system: A375Riv human melanoma cells; assay: BRAFi-resistant A375Riv xenografts; assay type: in vivo; details: A375Riv xenografts in nude mice, 8TQ 10 mg/kg i.p. vs vehicle
# Protocol: (§2) FIG. 5. Targeting PSMD14 overcomes resistance to MAPK pathway inhibition. A) Melanoma cell lines resistant to BRAFi (A375RIV, M229R, M238R and M249R) or double resistant to BRAFi and MEKi (A375DDR) were transfected with siCTRL or siPSMD14 #1. After 72h, cell colonies were stained with crystal violet and the absorbance at 595 nm was measured. Box plots show the upper/lower quartile and the median with whiskers from min to max values (n=3, ***P<0.001). B) The above panel of melanoma cells was treated with increasing doses of 8TQ. After 72h, cells were labeled and analyzed. The corresponding IC50 of 8TQ was determined. Box plots indicate the upper/lower quartile and the median with whiskers from min to max values from 2 experiments performed in triplicate. C) 1×10^6 A375Riv human melanoma cells were implanted into both flanks of nude mice. After 2 days, mice were injected i.p every day with 8TQ (10 mg/kg) or vehicle. The tumor size was measured with a caliper and the tumor volume was determined. Data shown are mean±SD of tumor volume (n=12; ***, ***P<0.001, 2way ANOVA).
# All mouse experiments were carried out in accordance with the Institutional Animal Care and the local ethics committee (CIEPAL-Azur agreement NCE/2018-509). […] The tumor size was measured with a caliper and the tumor volume was determined using the formula: Volume=(length×Width2)/2. […]
# [3] = test system: 501Mel and A375 melanoma cells; assay: Phosphorylated H2AX after 8TQ; assay type: cell-based, human; details: increased doses of 8TQ, 48h, data not shown
# Protocol: For phospho-H2AX (pH2AX) foci staining, cells grown on coverslips or culture dishes were fixed with 4% paraformaldehyde and permeabilized in 50 mM Tris-HCl, pH 7.4, 150 mM NaCl, 0.3% Triton X-100 for 1 h at 4° C. Cells were then blocked in 50 mM Tris-HCl, pH 7.4, 150 mM NaCl, 0.03% Triton X-100, 1% BSA for 1 h at 37° C., and stained with anti-phospho-Ser139 H2AX (1:1000, Merck Millipore #05-636) at 4° C. overnight. After extensive washings, cells were stained with Alexa Fluor TexasRed-conjugated secondary antibodies and 10 μg/ml DAPI for 1 h at room temperature. After washing, cells were mounted with ProLong Gold Antifade Mounting Oil (Thermo Fischer Scientific). The percentage of cells positive for phospho-H2AX foci was determined by analyzing 200 randomly chosen cells and the foci-positive cells were defined as nuclei with at least one large focus or a granular pattern of fluorescence.
# [4] = test system: Yumm1.7 murine melanoma cells (BrafV600E/Pten null/cdkn2a null); assay: Yumm1.7 syngeneic melanoma model; assay type: in vivo, C57Bl/6J mice
# Protocol: (§3) FIG. 4. The PSMD14 inhibitor 8TQ inhibits tumor growth in melanoma syngeneic models. A) 2×10^5 murine melanoma cells Yumm1.7 (derived from BrafV600E/Pten null/cdkn2a null mice) were subcutaneously inoculated into both flanks of 6-week old C57Bl/6J female mice. After one week, mice were injected i.p 3 times per week with 8TQ (10 mg/kg) or vehicle. The tumor size was measured with a caliper and the tumor volume was determined. Data shown are mean±SD of tumor volume (n=12; ***, ***P<0.001, 2way ANOVA). B) 4×105 murine melanoma MaNRas (NRasQ61K) were subcutaneously injected into both flanks of 6-week old C57Bl/6J female mice. After two weeks, mice were injected i.p every two days with 8TQ (10 mg/kg) or vehicle. The tumor size was measured with a caliper and the tumor volume was determined. Data shown are mean±sd of tumor volume (n=12; ***, ***P<0.001, 2way ANOVA).
# Slices (4 μm) from paraffin-embedded tumors sections were Tissue sections were processed for dewaxing, rehydration and antigenic heat unmasking using the PT Module Lab Vision™ (ThermoFisher Scientific) according to the manufacturer's instructions. Tissue sections were then labelled with primary antibodies diluted in 1% BSA (wt/vol) followed by standard avidin-biotin-peroxidase staining (Vector Laboratories) using the automated staining system Myreva SS30 (Microm Microtech, France). Primary antibodies were as follows: phospho-H2AX (Merck Millipore), Ki67 (Agilent Dako), cleaved caspase 3 (Cell Signaling Technology).
# All mouse experiments were carried out in accordance with the Institutional Animal Care and the local ethics committee (CIEPAL-Azur agreement NCE/2018-509). The animals were maintained on a 12h light/dark cycle in a temperature-controlled facility at 22° C. and were provided with free access to food (standard laboratory chow diet from UAR). For melanoma xenografts, 2×106 BRAF inhibitor resistant A375Riv human melanoma cells were subcutaneously implanted into both flanks of 6 week old athymic nude nu/nu female mice (Envigo). For melanoma syngeneic models, 2 to 4 105 of Yumm1.7 or MaNras murine melanoma cells were subcutaneously inoculated into 6 week old C57Bl/6J female mice (Envigo). When tumors became palpable (0.05 to 0.1 cm3), mice were injected intraperitoneally once every other day with vehicle or 10 mgkg-1 8TQ in a 90:9:1 (v/v/v) mixture of Labrafil, dimethylacetamide, and Tween 80. The tumor size was measured with a caliper and the tumor volume was determined using the formula: Volume=(length×Width2)/2. At the end of the experiment, mice were sacrificed and tumors dissected, weighed, fixed and embedded in paraffin for IHC analysis.
# [5] = test system: A375RIV, M229R, M238R, M249R and A375DDR melanoma cells; assay: Viability of BRAFi- and BRAFi/MEKi-resistant melanoma cells treated with 8TQ; assay type: cell-based, human
# Protocol: as §2, §1
# [6] = test system: MaNRas murine melanoma cells (NRasQ61K); assay: MaNRas syngeneic melanoma model; assay type: in vivo; details: 8TQ 10 mg/kg i.p. vs vehicle, C57Bl/6J mice
# Protocol: as §3
# All mouse experiments were carried out in accordance with the Institutional Animal Care and the local ethics committee (CIEPAL-Azur agreement NCE/2018-509). The animals were maintained on a 12h light/dark cycle in a temperature-controlled facility at 22° C. and were provided with free access to food (standard laboratory chow diet from UAR). […] The tumor size was measured with a caliper and the tumor volume was determined using the formula: Volume=(length×Width2)/2. […]
# [7] = test system: A375 cells; assay: Western blot analysis of A375 cells; assay type: cell-based, human; details: data not shown
# Source text: Culture reagents and DAPI were purchased from Thermo Fischer Scientific. Vemurafenib (PLX4032) and Trametinib (GSK1120212) were from Selleckchem. Chemicals, cycloheximide (CHX), 8TQ and puromycin were from Merck Millipore. The antibodies used for western blotting were as follow: PSMD14 (Generon), HSP90, p53 (Santa Cruz Biotechnology), K48-linkage specific polyubiquitin (D9D5), p21, CDK2, PARP, cleaved caspase 3, phospho-Thr202/Tyr204 Erk1/2 (Cell Signaling Technology), phospho-Ser139 H2AX (BioLegend). Alexa Fluor TexasRed-conjugated secondary antibodies were from ThermoFisher Scientific.
# [8] = test system: A375 cells; assay: Survival analysis (crystal violet staining) of A375 cells treated with 8TQ; assay type: cell-based; details: Homo sapiens, A-375, increasing doses of 8TQ, 72h, read-out: calculated IC50 for 8TQ
# Protocol: FIG. 3. Pharmacological inhibition of PSMD14 impairs melanoma cell survival. A) Survival analysis performed on A375 cells treated with vehicle or increasing doses of 8TQ (0.27, 0.9, 3 μM). After 72h, cells were stained with crystal violet. Right, cell viability was quantified on lysates by analyzing crystal violet staining at 595 nm. Histograms represent the mean±SD of three independent experiments in duplicate (***P<0.001; ns, non significant). B) Effect of PSMD14 inhibition on melanoma cell viability. A375 cells were treated with vehicle or increasing doses of 8TQ (0.27, 0.9, 3 μM). After 72h, cells were stained with Annexin V-FITC and DAPI and analysed by flow cytometry. Histograms show the percentage of cell death (Annexin V and DAPI positive cells) (mean±SEM, n=3). The calculated mean IC50±sem is shown. (** P<0.005, ***P<0.001). C) A subset of melanoma cells was treated with increasing doses of 8TQ. After 72h, cells were labeled and analyzed as in b). The corresponding IC50 of 8TQ was determined by measuring cell viability. Box plots indicating the upper/lower quartile and the median with whiskers from min to max values from 2 experiments performed in triplicate.
# After treatment, cells were fixed in PFA 3% during 20 min, washed with PBS and stained with crystal violet 0.4% in ethanol 20% for 30 min. After washing, crystal violet was solubilized from fixed cells. […]
# [9] = test system: A375 cells; assay: Cell death by Annexin V-FITC/DAPI flow cytometry; assay type: cell-based, human; details: 8TQ 0.27, 0.9, 3 μM, 72h
# Protocol: FIG. 2. PSMD14 depletion has a potent cytotoxic effect on melanoma cells. A) Experimental validation of the siDUB screening on melanoma cell proliferation. 501Mel and A375 melanoma cells were plated 10,000 cells/well in a 24-well plate and transfected with a control siRNA (siCTRL) or 3 different siRNA sequences targeting PSMD14 (siPSMD14 #1, #2 and #3). Cell confluence was imaged for 48 h using the IncuCyte Zoom live imaging system. Curves represent normalized cell proliferation of each siRNA relative to siCTRL. Data are the mean±SEM (n=3). ***P<0.001, 2-way ANOVA analysis. B) Colony survival analysis after PSMD14 depletion (siPSMD14 #1, #2 and #3) compared to control siRNA (siCTRL). 501Mel and A375 cells were transfected with siRNAs, re-seeded at 2,000 cells/well and grown for 1 week. Colonies were stained with crystal violet. […] Box plots show the mean±SEM of crystal violet quantification relative to siCTRL (n=3, ***P<0.001.). […] After 72h, cells were labeled with Annexin V-FITC and DAPI and analysed by flow cytometry. […]
# FIG. 3. […] Right, cell viability was quantified on lysates by analyzing crystal violet staining at 595 nm. […] After 72h, cells were stained with Annexin V-FITC and DAPI and analysed by flow cytometry. […] The calculated mean IC50±sem is shown. […] After 72h, cells were labeled and analyzed as in b). The corresponding IC50 of 8TQ was determined by measuring cell viability. […]
# [10] = Yumm1.7 tumors, vs vehicle, data not shown
# [11] = immunostaining on tumor sections, data not shown
structure (smiles),measurement,setting,value
"Sc1cccc2cccnc12 [8TQ, quinoline-8-thiol]",IC50,"[1]; collection of human and murine melanoma cell lines and short-term cultures, 72h",250 to 750 nM
same,melanoma cell viability,[1]; irrespective of the mutational status or the disease stage,markedly inhibited
same,tumor development,[2],dramatically abrogated
same,expression of phosphorylated H2AX,[3],elevated expression
same,Yumm1.7 tumor growth,"[4]; 8TQ 10 mg/kg i.p. vs vehicle, C57Bl/6J mice",significantly decreased
same,tumor size at the experiment endpoint,[4]; [10],markedly reduced
same,tumor weight at the experiment endpoint,[4]; [10],markedly reduced
same,staining of the apoptosis marker cleaved caspase 3,[4]; [11],increased staining
same,staining of the cell proliferation marker Ki67,[4]; [11],decreased staining
same,viability of BRAFi- and BRAFi/MEKi-resistant cells,"[5]; doses of 8TQ, 72h",potently decreased
same,IC50 of 8TQ,[5]; resistant cells compared with parental counterparts,in the same μM range
same,MaNRAS tumor growth,[6],significantly decreased
same,accumulation of poly-ubiquitinated proteins,[7],induced the accumulation
same,expression of cleaved PARP,[7],induced
same,expression of cleaved caspase-3,[7],induced
same,IC50,[8],660 nM
same,apoptotic cell death (Annexin V-FITC/DAPI staining),[9],dose-dependent increase
